# Data published in US10111431B2, “Application of biofilm formation inhibiting compounds enhances control of citrus canker” (priority 2013, dated 2018).
# Assays:
# [1] = tested on: Xac306 biofilm formation; assay: Biofilm formation on polystyrene surface and in glass tubes at sub-MIC; assay type: cell-based, Xanthomonas citri subsp. citri; conditions: Xanthomonas citri, read-out: level of biofilm formation, % of control
# Procedure: A static biofilm formation assay in 96-well polystyrene plates coupled with CV staining was performed as previously reported with modifications (Li and Wang, 2011). Briefly, a 96-well polystyrene plate (Nunclon surface, Nuncbrand, Denmark) was prepared with 170 μL NB plus 1.0% glucose per well. Aliquots of 20 μL each of the different concentrations of the tested compound were pipetted into eight wells containing 170 μL of NB plus 1.0% glucose. To each of these wells was added 10 μL of the standardized overnight Xac 306 culture (OD600=1.0). Control wells contained NB plus 1.0% glucose and SDW or 0.1% DMSO as a sterility control, or standardized overnight Xac 306 culture as a growth control. […] After incubation, the planktonic growth was measured at OD600. To quantify the amount of biofilms formed on the surfaces of the wells, the culture was removed from the wells. […] The eluted CV was 2-fold diluted in double distilled water and the absorbance at 590 nm was measured. […]
# To gain further evidence of the effect of selected compounds on biofilm formation, biofilm formation in glass tubes and on leaf surfaces was examined as described previously (Li and Wang, 2012). […] The stain remaining in cells on glass tubes was dissolved in 95% ethanol and quantified by measuring the optical density at 590 nm. […]
# [2] = tested on: Xac 306 biofilm cells; assay: Resistance of Xac biofilm cells to copper, cell viability assay in glass tubes; assay type: cell-based, Xanthomonas citri subsp. citri; conditions: for susceptibility of biofilms to CuSO4 relative to untreated control: 10 mM D-leucine, 100 μg/mL IAN; for cell viability of Xac biofilms exposed to CuSO4: CuSO4 1.0 mM plus biofilm inhibitor; for viable cells in biofilms: CuSO4 (1.0 mM) plus D-leucine 10.0 mM and/or IAN 100 μg/ml, 24 h
# Procedure: The level of copper resistance of biofilms was evaluated using a cell viability assays. Briefly, Xac biofilms were prepared using NB with stationary incubation in glass tubes as described above. After 48 h-incubation, the cultures were removed and bacterial cells attached to the tubes were gently washed three times with SDW. One milliliter of fresh NB with CuSO4 (1.0 mM), D-leucine (10 mM) or IAN (100 μg/mL), or a combination of these compounds was added to each tube. NB alone was used as control. Tubes were kept at room temperature for 24 h and shaken vigorously for 5 min. The suspensions were diluted in 10-fold series, and 10 μL of each dilution spotted in triplicate on NA plate. Plates were incubated at 28° C. for 48 to 72 h prior to assessing bacterial growth. Colonies that grew near the dilution end-point were counted and bacterial populations in the initial suspensions prior to dilution were calculated. Each treatment compromises four replicates and the experiment repeated three times.
# [3] = tested on: Xac306 biofilm formation; assay: Static biofilm formation assay in 96-well polystyrene plates with crystal violet staining; assay type: cell-based, Xanthomonas citri subsp. citri; conditions: for dose dependence of Xac306 biofilm decrease: 0 to 20 mM for D-leucine and D-serine, 0 to 150 μg/mL for IAN; for decrease in biofilm mass: 10 mM for D-leucine and 100 μg/mL for IAN (below MIC); for effect on planktonic cell density: sub-MIC: 10 mM D-leucine, 100 μg/mL IAN, data not shown
# Procedure: A static biofilm formation assay in 96-well polystyrene plates coupled with CV staining was performed as previously reported with modifications (Li and Wang, 2011). Briefly, a 96-well polystyrene plate (Nunclon surface, Nuncbrand, Denmark) was prepared with 170 μL NB plus 1.0% glucose per well. Aliquots of 20 μL each of the different concentrations of the tested compound were pipetted into eight wells containing 170 μL of NB plus 1.0% glucose. To each of these wells was added 10 μL of the standardized overnight Xac 306 culture (OD600=1.0). Control wells contained NB plus 1.0% glucose and SDW or 0.1% DMSO as a sterility control, or standardized overnight Xac 306 culture as a growth control. The plate was covered by a MicroWell lid (Nunclon), sealed with parafilm to prevent evaporation and incubated at 28° C. for 48 h without shaking. After incubation, the planktonic growth was measured at OD600. To quantify the amount of biofilms formed on the surfaces of the wells, the culture was removed from the wells. After drying, the wells were washed twice with 200 μl of SDW for 5 min, allowed to dry then 200 μl of 0.1% CV added. After 30 minutes, the CV was removed. The wells were washed with excess SDW to remove unbound CV and air dried in an inverted position for 2 h. Afterward, 200 μl of 95% ethanol was added to the wells and incubated for 30 min at room temperature to elute bound CV. The eluted CV was 2-fold diluted in double distilled water and the absorbance at 590 nm was measured. Each data point was averaged from eight replicate wells.
# [4] = tested on: Xac 306 on grapefruit leaves; assay: Plant test in greenhouse, spray inoculation of grapefruit leaves; assay type: in vivo, Xanthomonas citri subsp. citri; conditions: for level of canker lesions on sprayed leaves / canker symptom development on grapefruit leaves (lesion numbers): D-leucine 10 mM, IAN 100 μg/mL; for level of canker lesions on sprayed leaves: CuSO4 100 μg/mL; for canker symptom development on grapefruit leaves: applied after (6 h) the pathogen inoculation; for canker symptom development on grapefruit leaves (lesion numbers): applied along with or prior to (6 h) pathogen inoculation; for log reduction in the number of CFU compared to untreated control: grapefruit leaves, 7 to 28 days after inoculation
# Procedure: The effect of selected biofilm inhibitors on Xac infection/virulence-was investigated using 20-week-old potted grapefruit (Citrus paradise cv. Duncan grapefruit) plants in a quarantine greenhouse at the Citrus Research and Education Center, Lake Alfred, Fla. Copper (CuSO4, 100 μg/mL), D-leucine (10 mM), IAN (100 μg/mL) and a combination of these compounds were individually prepared in 100 ml of SDW. Bacterial inoculum was prepared by growing Xac 306 on NA plates at 28° C. for 48 h, suspending in SDW, adjusting concentration to approximately OD600=0.3 (5×10^8 CFU/mL). The inoculation was performed by a spray method as described previously (Li and Wang, 2012) with modifications. Briefly, the abaxial surfaces of fully expanded, immature leaves of each plant were sprayed with the following treatments: SDW, Xac 306, and Xac 306 combined with CuSO4 (100 μg/mL), D-leucine (10 mM), IAN (100 μg/mL), or a combination of these compounds. Silwett-L77 (silicone-polyether copolymer, Fisher) was added to each treatment at a 0.03% (V/V) final concentration. After inoculation, the plants were covered with plastic bags for 24 h to maintain a high (>90%) relative humidity and then kept in a greenhouse (approximately 60% relative humidity) for symptom development. All inoculations included a minimum of three immature leaves at a similar developmental stage from each plant, and each treatment comprised four plants. The experiments were repeated three times independently. SDW was applied as a negative control, and Xac306 mixed with SDW as positive control. To determine whether the timing of application of biofilm inhibitors in relation to Xac306 affected canker symptom suppression, the biofilm inhibitors were inoculated on leaves 6 h prior to or after inoculation with Xac306.
# For bacterial population assays, the leaves of grapefruit plants were inoculated as described above. Two leaf discs randomly selected from each of three inoculated leaves were cut with a cork borer (0.8 cm in diameter) and then ground in 1 mL of SDW. The suspensions were serially diluted and plated on NA plates containing rifamycin. After incubation at 28° C. for 48 h, bacterial colonies were counted and the number of CFU per square centimeter of leaf tissue was calculated. The assays were repeated three times independently.
# [5] = tested on: X. citri subsp. citri on citrus fruit; assay: Detached immature grapefruit fruit spray inoculation; assay type: in vivo, Xanthomonas citri subsp. citri; conditions: for decrease in CFU per square centimeter of fruit tissue compared with untreated control / canker symptom development on fruit surface (lesion numbers): D-leucine 10 mM, IAN 100 μg/ml; for canker symptom development on fruit surface (lesion numbers): applied along with pathogen, preliminary study; for log reduction in the number of CFU per square centimeter: fruit, 11 days after inoculation
# [6] = tested on: Xac strain 306 biofilm formation; assay: Biofilm formation on citrus abaxial leaf surfaces; assay type: cell-based, Xanthomonas citri subsp. citri; conditions: 10 mM D-leucine, 100 μg/mL IAN; 28° C., 24 h, crystal violet
# Procedure: To gain further evidence of the effect of selected compounds on biofilm formation, biofilm formation in glass tubes and on leaf surfaces was examined as described previously (Li and Wang, 2012). Briefly, the standardized overnight culture of Xac 306 (OD600=1.0) were diluted 1:10 in fresh NB containing 1.0% glucose and the selected compound. For biofilm formation assay in glass tubes (Fischer Scientific, Pittsburgh, Pa.), 1 ml of the diluted bacterial suspension was transferred into each sterilized borosilicate glass tube and incubated at 28° C. without shaking for 48 h. The planktonic growth was then discarded and the tubes were gently washed three times with SDW. The biofilm formed on the tubes was visualized by staining with 0.1% CV. The stain remaining in cells on glass tubes was dissolved in 95% ethanol and quantified by measuring the optical density at 590 nm. For biofilm formation assay on leaf surfaces, 20 μl of the diluted bacterial suspension was dropped onto the abaxial surface of citrus leaves. The leaves were kept in a humidified chamber at 28° C. for 24 h without shaking. The biofilm formed on the leaf surfaces was visualized by staining with 0.1% CV. The biofilm assays were repeated three times with four replicates each time.
Compound,activity at 10000 µM [1],susceptibility of biofilms to CuSO4 relative to untreated control [2],cell viability of Xac biofilms exposed to CuSO4 [2],viable cells in biofilms [2],dose dependence of Xac306 biofilm decrease [3],decrease in biofilm mass [3],effect on planktonic cell density [3],level of canker lesions on sprayed leaves [4],canker symptom development on grapefruit leaves [4],canker symptom development on grapefruit leaves (lesion numbers) [4],log reduction in the number of CFU compared to untreated control [4],decrease in CFU per square centimeter of fruit tissue compared with untreated control [5],canker symptom development on fruit surface (lesion numbers) [5],log reduction in the number of CFU per square centimeter [5],biofilm formation on citrus leaf surfaces [6],"activity at 100 µg/mL ([1]; polystyrene surface and glass tubes, 10 mM D-leucine, 100 μg/mL IAN)"
CC(C)C[C@@H](N)C(=O)O [D-leucine],50%,about 10 times,significantly reduced,1.1×10^6 CFU/mL,decreased Xac306 biofilm in a dose-dependent manner,58%,does not significantly decrease planktonic cell density,less than that sprayed with the pathogen alone,did not affect the development of canker symptoms,able to reduce canker symptom development,~1.0 log,approximately 50 fold,able to reduce canker symptom development,~1.6 log,declined biofilm formation,
"N#CCc1c[nH]c2ccccc12 [IAN, 3-indolylacetonitrile]",,about 10 times,significantly reduced,4.3×10^6 CFU/mL,decreased Xac306 biofilm in a dose-dependent manner,65%,does not significantly decrease planktonic cell density,less than that sprayed with the pathogen alone,did not affect the development of canker symptoms,able to reduce canker symptom development,~1.0 log,approximately 50 fold,able to reduce canker symptom development,~1.8 log,declined biofilm formation,60%
